Test results from patent US10662229B2, “Spider venom peptides and methods of use for modulating sodium channels” (priority 2016, dated 2020).

Key:
[1] = target: T1, hNav1.1 (Homo sapiens, UniProt P35498); test: Automated patch clamping (QPatch-16), hNav1.1; type: cell-based; conditions: mean±SEM
T1 construct: host or cells: HEK293
Protocol: (§1) HEK293 cells stably expressing hNav1.1-1.7 or CHO cells stably expressing hNav1.8 (as described in Example 3 above) were cultured in a T-175 flask in selection antibiotic-free media at 37° C. Cells were grown to 70-80% confluence and harvested using Detachin (Bio-Scientific, NSW, Australia) at 37° C. for 2 min. Dissociated cells were then resuspended in Ex-Cell ACF CHO Medium with HEPES (25 mM; Sigma-Aldrich Co.) and allowed to recover on the QStirrer for 30 min.
(§2) The extracellular solution contained in mM: NaCl 145, KCl 4, CaCl2 2, MgCl2 1, HEPES 10 and glucose 10. The pH was adjusted to 7.4 with NaOH and osmolarity was adjusted with sucrose to 305 mOsm. The intracellular solution contained in mM: CsF 140, ethylene glycol tetraacetic acid (EGTA)/CsOH 1/5, HEPES 10 and NaCl 10. The pH was adjusted to 7.3 with CsOH and osmolarity adjusted with sucrose to 320 mOsm. […]
(§3) The current-voltage (IV) curve was constructed with a holding potential of −80 mV followed by a pre-pulse of −100 mV for 50 ms and a series of 50 ms step pulses that ranged from −80 to 50 mV in 5 mV increments before returning to a holding potential of −80 mV. Voltage-dependence of activation was determined as normalized Nav conductance (GNa) using: GNa=INa/(Vmemb−Vrev), where Vmemb is the membrane potential and Vrev is the reversal potential for each cell. […]

[2] = target: T2, hNav1.4 (Homo sapiens, UniProt P35499); test: Automated patch clamping (QPatch-16), hNav1.4; type: cell-based
T2 construct: host or cells: HEK293
Protocol: as §1, §2, §3

[3] = target: T3, hNav1.2 (Homo sapiens, UniProt Q99250); test: FLIPR membrane potential assay, hNav1.2; type: cell-based
T3 construct: host or cells: HEK293
How it was run: (§4)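 Stable HEK293 lines, one per hNav isoform; red membrane potential dye, 30 min, 37° C; FLIPR^TETRA read at 1 s intervals over 300 s post-agonist.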

[4] = target: T4, hNav1.6 (Homo sapiens, UniProt Q9UQD0); test: FLIPR membrane potential assay, hNav1.6; type: cell-based
T4 construct: host or cells: HEK293
How it was run: as §4

[5] = test system: ciguatoxin-induced spontaneous pain in mice; test: Ciguatoxin-induced spontaneous pain; type: in vivo; conditions: intraplantar, co-injected with ciguatoxin
Protocol: For behavioural assessment adult male C57BL/6J mice aged 6-8 weeks were used. Animals were housed in groups of 3 or 4 per cage, under 12 h light-dark cycles and had standard rodent chow and water ad libitum.
Ciguatoxin (P-CTX-1; isolated in accordance with the protocol of Hamilton et al. (2002) Toxicon, 40(6): 685-693) was diluted in phosphate-buffered saline/0.1% BSA (10 nM) and administered by shallow subcutaneous (intraplantar) injection to the left hind paw of mice in a volume of 40 μL under light isoflurane (3%) anesthesia. Mice were then placed individually into polyvinyl boxes (10×10×10 cm), and spontaneous pain behavior (licks and flinches) was counted by an investigator unaware of the treatments received from video recordings for 10 min post-injection.

[6] = target: T5, hNav1.8 (Homo sapiens, UniProt Q9Y5Y9); test: Automated patch clamping (QPatch-16), hNav1.8; type: cell-based
T5 construct: host or cells: HEK293
Protocol: as §1, §2, §3

[7] = target: T6, hNav1.5 (Homo sapiens, UniProt Q14524); test: FLIPR membrane potential assay, hNav1.5; type: cell-based
T6 construct: host or cells: HEK293
How it was run: as §4

[8] = target: T7, hNav1.7 (Homo sapiens, UniProt Q15858); test: Automated patch clamping (QPatch-16), hNav1.7; type: cell-based; conditions: for voltage dependence of activation, V50: control −25.1±0.5 mV
T7 construct: host or cells: HEK293
Protocol: as §1
The extracellular solution contained in mM: NaCl 145, KCl 4, CaCl2 2, MgCl2 1, HEPES 10 and glucose 10. The pH was adjusted to 7.4 with NaOH and osmolarity was adjusted with sucrose to 305 mOsm. The intracellular solution contained in mM: CsF 140, ethylene glycol tetraacetic acid (EGTA)/CsOH 1/5, HEPES 10 and NaCl 10. The pH was adjusted to 7.3 with CsOH and osmolarity adjusted with sucrose to 320 mOsm.
Whole-cell patch-clamp experiments were performed on a QPatch-16 automated electrophysiology platform (Sophion Bioscience, Ballerup, Denmark) using 16-channel planar patch chip plates (QPlates; Sophion Bioscience) with a patch hole diameter of 1 μm and resistance of 2±0.02 MΩ with the following parameters: positioning pressure −60 mbar, minimum seal resistance 0.1 GΩ, holding potential −100 mV, holding pressure −20 mbar.
Whole-cell currents were filtered at 5 kHz and acquired at 25 kHz.
The current-voltage (IV) curve was constructed with a holding potential of −80 mV followed by a pre-pulse of −100 mV for 50 ms and a series of 50 ms step pulses that ranged from −80 to 50 mV in 5 mV increments before returning to a holding potential of −80 mV. Voltage-dependence of activation was determined as normalized Nav conductance (GNa) using: GNa=INa/(Vmemb−Vrev), where Vmemb is the membrane potential and Vrev is the reversal potential for each cell. The voltage of activation data was fitted to a Boltzmann sigmoidal curve using GraphPad Prism, version 6.0.

[9] = target: T8, hNav1.3 (Homo sapiens, UniProt Q9NY46); test: Automated patch clamping (QPatch-16), hNav1.3; type: cell-based; conditions: mean±SEM
T8 construct: host or cells: HEK293
Protocol: as §1, §2, §3

[10] = target: T6, hNav1.5; test: Automated patch clamping (QPatch-16), hNav1.5; type: cell-based
Protocol: as §1, §2, §3

[11] = target: T1, hNav1.1; test: FLIPR membrane potential assay, hNav1.1; type: cell-based
How it was run: as §4

[12] = target: T2, hNav1.4; test: FLIPR membrane potential assay, hNav1.4; type: cell-based
How it was run: as §4

[13] = target: T5, hNav1.8; test: FLIPR membrane potential assay, hNav1.8; type: cell-based
How it was run: as §4

T7 sequence (Q15858 whole entry): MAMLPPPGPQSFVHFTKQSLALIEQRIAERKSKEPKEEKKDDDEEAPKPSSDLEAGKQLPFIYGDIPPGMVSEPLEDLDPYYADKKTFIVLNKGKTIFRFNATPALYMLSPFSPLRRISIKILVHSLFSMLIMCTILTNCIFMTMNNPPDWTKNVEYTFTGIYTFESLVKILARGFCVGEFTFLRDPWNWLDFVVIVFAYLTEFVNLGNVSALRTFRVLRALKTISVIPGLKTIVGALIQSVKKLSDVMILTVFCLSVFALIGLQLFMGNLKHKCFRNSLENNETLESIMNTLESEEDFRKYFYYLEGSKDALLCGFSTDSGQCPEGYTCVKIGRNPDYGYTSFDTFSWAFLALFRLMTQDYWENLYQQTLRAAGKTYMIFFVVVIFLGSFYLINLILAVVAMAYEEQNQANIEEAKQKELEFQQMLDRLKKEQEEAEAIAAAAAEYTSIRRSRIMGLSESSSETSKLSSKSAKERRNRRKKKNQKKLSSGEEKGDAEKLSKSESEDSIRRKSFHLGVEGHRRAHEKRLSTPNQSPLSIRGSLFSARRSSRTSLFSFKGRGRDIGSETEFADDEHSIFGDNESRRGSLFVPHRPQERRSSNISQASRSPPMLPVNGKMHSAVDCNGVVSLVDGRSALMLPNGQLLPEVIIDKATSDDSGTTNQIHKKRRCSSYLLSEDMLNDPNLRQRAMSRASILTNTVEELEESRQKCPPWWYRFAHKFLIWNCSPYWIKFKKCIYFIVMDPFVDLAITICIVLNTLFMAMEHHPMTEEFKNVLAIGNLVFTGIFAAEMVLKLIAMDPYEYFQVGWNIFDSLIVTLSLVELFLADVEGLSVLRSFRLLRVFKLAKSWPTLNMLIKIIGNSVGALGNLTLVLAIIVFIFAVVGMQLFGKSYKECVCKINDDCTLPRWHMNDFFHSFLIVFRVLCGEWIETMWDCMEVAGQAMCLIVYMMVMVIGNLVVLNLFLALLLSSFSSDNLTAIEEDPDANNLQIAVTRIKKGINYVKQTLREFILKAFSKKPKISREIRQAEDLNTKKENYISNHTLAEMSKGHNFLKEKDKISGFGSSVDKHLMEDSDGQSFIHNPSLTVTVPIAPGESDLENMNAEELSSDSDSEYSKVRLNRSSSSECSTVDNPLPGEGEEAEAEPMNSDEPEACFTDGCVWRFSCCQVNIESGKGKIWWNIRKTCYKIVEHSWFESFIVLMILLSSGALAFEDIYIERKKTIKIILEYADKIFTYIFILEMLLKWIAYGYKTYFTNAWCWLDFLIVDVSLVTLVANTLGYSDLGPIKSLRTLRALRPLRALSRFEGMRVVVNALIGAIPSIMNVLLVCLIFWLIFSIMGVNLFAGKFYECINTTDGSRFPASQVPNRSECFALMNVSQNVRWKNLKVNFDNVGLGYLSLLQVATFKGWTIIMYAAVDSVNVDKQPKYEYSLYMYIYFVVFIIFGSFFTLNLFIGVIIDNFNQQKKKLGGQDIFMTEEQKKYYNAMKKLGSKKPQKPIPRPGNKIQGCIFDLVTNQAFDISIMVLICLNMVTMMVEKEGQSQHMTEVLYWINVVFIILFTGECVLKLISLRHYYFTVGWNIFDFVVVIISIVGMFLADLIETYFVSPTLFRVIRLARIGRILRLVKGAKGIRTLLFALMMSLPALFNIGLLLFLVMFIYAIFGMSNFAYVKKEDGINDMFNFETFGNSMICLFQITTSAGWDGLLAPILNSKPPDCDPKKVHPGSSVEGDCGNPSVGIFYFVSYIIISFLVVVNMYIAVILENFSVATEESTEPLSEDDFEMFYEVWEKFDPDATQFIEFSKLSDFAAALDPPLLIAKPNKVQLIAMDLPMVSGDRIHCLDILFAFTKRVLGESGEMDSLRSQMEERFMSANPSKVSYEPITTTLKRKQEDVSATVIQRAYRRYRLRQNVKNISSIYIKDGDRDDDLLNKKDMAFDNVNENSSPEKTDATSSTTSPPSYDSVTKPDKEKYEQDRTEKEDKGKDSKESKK
T6 sequence (Q14524 whole entry): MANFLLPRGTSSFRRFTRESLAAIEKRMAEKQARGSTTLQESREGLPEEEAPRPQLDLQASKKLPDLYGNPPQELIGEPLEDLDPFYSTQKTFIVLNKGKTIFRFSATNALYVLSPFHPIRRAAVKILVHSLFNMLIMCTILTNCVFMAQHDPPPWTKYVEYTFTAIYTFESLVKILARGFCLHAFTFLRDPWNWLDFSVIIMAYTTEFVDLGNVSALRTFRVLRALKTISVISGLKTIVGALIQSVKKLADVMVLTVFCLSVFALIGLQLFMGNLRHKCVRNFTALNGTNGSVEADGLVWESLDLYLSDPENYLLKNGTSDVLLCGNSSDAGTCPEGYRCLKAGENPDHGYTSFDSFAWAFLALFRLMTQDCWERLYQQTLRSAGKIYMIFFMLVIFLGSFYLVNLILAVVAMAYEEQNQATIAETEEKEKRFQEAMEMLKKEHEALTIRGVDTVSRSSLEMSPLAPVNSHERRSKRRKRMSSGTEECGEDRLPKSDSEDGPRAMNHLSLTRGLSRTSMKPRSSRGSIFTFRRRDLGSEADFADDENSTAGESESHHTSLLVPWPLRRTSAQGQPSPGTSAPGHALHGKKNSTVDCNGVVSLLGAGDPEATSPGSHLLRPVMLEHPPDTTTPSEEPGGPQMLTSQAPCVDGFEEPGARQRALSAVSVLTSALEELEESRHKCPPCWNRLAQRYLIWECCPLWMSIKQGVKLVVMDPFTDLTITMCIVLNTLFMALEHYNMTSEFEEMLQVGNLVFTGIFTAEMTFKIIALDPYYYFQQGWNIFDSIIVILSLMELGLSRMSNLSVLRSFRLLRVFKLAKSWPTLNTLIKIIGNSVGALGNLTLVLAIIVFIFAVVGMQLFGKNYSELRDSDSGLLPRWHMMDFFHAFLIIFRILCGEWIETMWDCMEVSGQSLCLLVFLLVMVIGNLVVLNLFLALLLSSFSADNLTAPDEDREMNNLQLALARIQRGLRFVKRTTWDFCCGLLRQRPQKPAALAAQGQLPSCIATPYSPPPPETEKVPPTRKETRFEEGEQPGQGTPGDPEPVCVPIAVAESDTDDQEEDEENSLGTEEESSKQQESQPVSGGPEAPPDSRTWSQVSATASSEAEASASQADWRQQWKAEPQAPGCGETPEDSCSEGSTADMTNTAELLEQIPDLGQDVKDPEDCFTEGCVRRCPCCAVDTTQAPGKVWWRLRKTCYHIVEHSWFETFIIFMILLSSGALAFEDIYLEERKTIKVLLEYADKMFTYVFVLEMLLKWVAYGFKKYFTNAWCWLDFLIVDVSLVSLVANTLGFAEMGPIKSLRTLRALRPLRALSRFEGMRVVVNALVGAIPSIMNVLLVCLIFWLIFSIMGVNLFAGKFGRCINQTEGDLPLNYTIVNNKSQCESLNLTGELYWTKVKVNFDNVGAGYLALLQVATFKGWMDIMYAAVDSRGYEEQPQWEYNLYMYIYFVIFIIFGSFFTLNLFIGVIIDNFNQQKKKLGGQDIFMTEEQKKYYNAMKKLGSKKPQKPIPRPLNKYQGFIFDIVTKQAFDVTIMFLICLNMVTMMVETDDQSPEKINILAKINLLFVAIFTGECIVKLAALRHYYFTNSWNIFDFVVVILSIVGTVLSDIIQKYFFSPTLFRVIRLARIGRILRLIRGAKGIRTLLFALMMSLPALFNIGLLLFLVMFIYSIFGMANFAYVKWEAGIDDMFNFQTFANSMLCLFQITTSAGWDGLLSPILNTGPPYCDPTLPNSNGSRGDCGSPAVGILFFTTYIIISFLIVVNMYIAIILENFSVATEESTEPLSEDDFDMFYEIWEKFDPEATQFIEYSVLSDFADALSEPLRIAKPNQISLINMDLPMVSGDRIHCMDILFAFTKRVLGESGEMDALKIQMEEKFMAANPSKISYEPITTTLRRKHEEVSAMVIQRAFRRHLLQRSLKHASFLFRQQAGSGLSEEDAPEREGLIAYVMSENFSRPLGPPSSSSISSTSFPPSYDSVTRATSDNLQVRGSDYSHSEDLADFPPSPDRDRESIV

Structure (SMILES): CSCC[C@@H]1NC(=O)[C@H](Cc2ccc(O)cc2)NC(=O)[C@H](CCCNC(=N)N)NC(=O)[C@@H](NC(=O)[C@@H](N)CC(=O)O)CSSC[C@@H]2NC(=O)[C@@H]3CSSC[C@@H](C(=O)N[C@@H](C)C(=O)N[C@@H](Cc4c[nH]c5ccccc45)C(=O)N[C@@H](CC(=O)O)C(=O)N[C@@H](Cc4ccccc4)C(=O)N[C@H](C(=O)N[C@@H](Cc4ccccc4)C(=O)N[C@H](C(=O)O)[C@@H](C)O)[C@@H](C)O)NC(=O)[C@H](Cc4ccc(O)cc4)NC(=O)[C@H](CCCCN)NC(=O)[C@H](CCSC)NC(=O)[C@H](CCCCN)NC(=O)[C@H](CCCNC(=N)N)NC(=O)[C@H](CCCCN)NC(=O)[C@H](CSSC[C@H](NC(=O)[C@H](CC(=O)O)NC(=O)CNC(=O)[C@H](Cc4ccccc4)NC1=O)C(=O)N[C@@H](CCC(=O)O)C(=O)N[C@@H](CCCCN)C(=O)N[C@@H](CC(=O)O)C(=O)N[C@@H](CCC(=O)O)C(=O)N[C@@H](CC(=O)O)C(=O)N3)NC(=O)CNC(=O)[C@H](CC(C)C)NC(=O)[C@H](Cc1cnc[nH]1)NC(=O)[C@H](CCCCN)NC2=O [Pnc1a]
- pIC50 Nav1.1 [1]: 7.43±0.1 M
- IC50 [2]: 0.158 µM
- IC50 [3]: 2.95 µM
- IC50 [4]: 18.6 µM
- ciguatoxin-induced spontaneous pain behaviours [5]: significantly reduced
- IC50 [6]: 47.9 µM
- IC50 [7]: 85.1 µM
- voltage dependence of activation, V50 ([8]; 0.3 nM): −28.94±0.66 mV
- voltage dependence of activation, V50 ([8]; 10 nM): −4.40±2.2 mV
- effect on the voltage dependence of fast inactivation ([8]; 100 nM): no effect
- effect on the voltage dependence of slow inactivation ([8]; 100 nM): no effect
- voltage dependence of activation, V50 ([8]; 100 nM): −3.82±0.8 mV
- pIC50 Nav1.3 [9]: 6.68±0.1 M
- IC50 [10]: 0.977 µM
- IC50 [11]: 13.2 µM
- IC50 [12]: 11.2 µM
- IC50 [13]: 26.3 µM
